The values that follow come from US20100179188A1, “NITROXIDE RADICAL AS TREATMENT FOR NEURODEGENERATION” (Office of Technology Transfer, NIH, priority 2007, published 2010).

One data set deals with T1, cytosolic aconitase (Mus musculus, UniProt P28271).
T1 construct: Embryonic fibroblasts of 13-day old embryos were isolated from wild type, IRP1−/− mice and IRP2−/− mice; endogenous in cells; host or cells: mouse embryonic fibroblasts (wild type and IRP2−/−)
T1 sequence (P28271 1-889): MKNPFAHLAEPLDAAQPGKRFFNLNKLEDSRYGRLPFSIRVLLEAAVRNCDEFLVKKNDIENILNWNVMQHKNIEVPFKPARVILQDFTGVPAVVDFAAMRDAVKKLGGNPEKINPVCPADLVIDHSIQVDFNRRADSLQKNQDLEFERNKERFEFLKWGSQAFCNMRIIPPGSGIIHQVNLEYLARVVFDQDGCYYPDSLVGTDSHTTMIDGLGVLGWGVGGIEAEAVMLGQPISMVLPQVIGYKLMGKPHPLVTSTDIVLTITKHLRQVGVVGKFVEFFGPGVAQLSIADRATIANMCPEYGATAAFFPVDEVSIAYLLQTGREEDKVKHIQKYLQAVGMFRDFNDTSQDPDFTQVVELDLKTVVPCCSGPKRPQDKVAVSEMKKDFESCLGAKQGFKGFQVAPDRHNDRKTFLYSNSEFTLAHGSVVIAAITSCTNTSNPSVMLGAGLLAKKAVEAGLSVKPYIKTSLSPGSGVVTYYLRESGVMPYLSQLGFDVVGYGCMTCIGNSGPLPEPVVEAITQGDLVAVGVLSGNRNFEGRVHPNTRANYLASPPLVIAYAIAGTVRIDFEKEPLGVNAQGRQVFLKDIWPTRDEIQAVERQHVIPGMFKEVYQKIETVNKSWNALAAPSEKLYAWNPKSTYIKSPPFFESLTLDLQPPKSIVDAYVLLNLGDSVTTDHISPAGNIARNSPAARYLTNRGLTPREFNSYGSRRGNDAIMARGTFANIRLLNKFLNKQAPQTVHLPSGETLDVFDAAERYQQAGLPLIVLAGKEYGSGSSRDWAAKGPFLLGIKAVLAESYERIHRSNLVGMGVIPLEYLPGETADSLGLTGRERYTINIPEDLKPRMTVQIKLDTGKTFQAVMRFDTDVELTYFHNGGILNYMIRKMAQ
As to the kind of experiment: In-gel aconitase assay in mouse embryonic fibroblast lysates, cytosolic aconitase. It is filed as cell-based. On the procedure: (§1) Cells: Embryonic fibroblasts of 13-day old embryos were isolated from wild type, IRP1−/− mice and IRP2−/− mice as described in LaVaute et al. supra. Myc-tagged HEK 293 Tet-on cell line, in which IRP2 expression was inducible, was prepared and cultured as described Bourdon et al., Blood Cells Mol Dis, 31, 247-255 (2003). Erythroblasts were harvested from bone marrow and purified as described in Cooperman et al., Blood, 106, 1084-1091 (2005).
Aconitase assay: Aconitase activity gels for human lysates were performed as described in Tong et al., infra, and aconitase activity gels for mouse lysate were performed with the following modifications. The gel was composed of a separating gel containing 6% acrylamide, 132 mM Tris base, 66 mM borate, 3.6 mM citrate, and a stacking gel containing 4% acrylamide, 66 mM Tris base, 33 mM borate, 3.6 mM citrate. The running buffer contains 25 mM Tris pH 8.3, 96 mM glycine, and 3.6 mM citrate. Electrophoresis were carried out at 170 V at 4° C. Spectral aconitase activity was measured by following the method of Fillebeen et al., infra, using cis-aconitate as the substrate.
To confirm that nitroxide radicals activate IRP1 binding by disassembly of the iron-sulfur cluster, we performed in-gel aconitase assays to determine whether Tempo1 decreased the activity of cytosolic aconitase. […] The band that represented the cytosolic aconitase was readily identified by its absence in lysates from IRP1−/− cells. […]
(§2) To determine whether the effect of Tempo1 on IRP1 activity was kinetically consistent with oxidative disassembly of the iron sulfur cluster, the effect of Tempo1 on aconitase activity was compared to that of the iron chelator, deferiprone (DFO), which activates IRE-binding activity of IRP1 by limiting de novo synthesis and repair of the iron sulfur cluster in IRP1. […] Recovery of aconitase activity was assessed in wild type and IRP2−/− cells.

The target in the next data set is T2, mitochondrial aconitase (Mus musculus, UniProt Q99KI0).
T2 construct: endogenous in cells; host or cells: mouse embryonic fibroblasts
T2 sequence (Q99KI0 28-780): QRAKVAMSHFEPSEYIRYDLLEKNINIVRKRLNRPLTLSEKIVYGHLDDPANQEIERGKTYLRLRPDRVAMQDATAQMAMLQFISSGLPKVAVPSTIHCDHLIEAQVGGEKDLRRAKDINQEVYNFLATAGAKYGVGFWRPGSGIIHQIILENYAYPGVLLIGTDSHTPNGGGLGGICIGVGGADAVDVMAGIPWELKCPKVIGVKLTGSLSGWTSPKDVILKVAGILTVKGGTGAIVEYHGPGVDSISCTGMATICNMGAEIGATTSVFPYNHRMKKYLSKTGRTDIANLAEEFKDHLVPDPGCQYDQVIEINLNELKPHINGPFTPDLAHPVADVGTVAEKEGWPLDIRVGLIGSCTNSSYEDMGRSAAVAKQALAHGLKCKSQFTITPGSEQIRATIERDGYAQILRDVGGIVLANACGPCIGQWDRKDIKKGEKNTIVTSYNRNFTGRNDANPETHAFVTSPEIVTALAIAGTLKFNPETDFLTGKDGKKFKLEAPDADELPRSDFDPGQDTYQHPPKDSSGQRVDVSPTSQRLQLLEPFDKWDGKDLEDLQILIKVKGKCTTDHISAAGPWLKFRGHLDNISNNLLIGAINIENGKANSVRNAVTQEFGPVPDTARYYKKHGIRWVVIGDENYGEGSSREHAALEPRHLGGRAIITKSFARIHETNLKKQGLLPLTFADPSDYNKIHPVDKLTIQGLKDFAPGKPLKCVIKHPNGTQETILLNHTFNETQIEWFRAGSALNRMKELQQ
In words: In-gel aconitase assay in mouse embryonic fibroblasts, mitochondrial aconitase. It counts as cell-based. On the procedure: as §1
Aconitase assay: Aconitase activity gels for human lysates were performed as described in Tong et al., infra, and aconitase activity gels for mouse lysate were performed with the following modifications. […] Spectral aconitase activity was measured by following the method of Fillebeen et al., infra, using cis-aconitate as the substrate.
as §2

Where only a bound is given, the exact number is not on record here.

`CC1(C)CC(O)CC(C)(C)N1[O]` [Tempo1]: the “activity of cytosolic aconitase” value at cytosolic aconitase (lysates from WT and IRP2−/− embryonic fibroblasts) is listed as “diminished”. The “time to reversal of the loss of cytosolic aconitase activity after removal” value on cytosolic aconitase (mouse embryonic fibroblasts, 16 hours treatment, then fresh unsupplemented media) was at most 2 h. The mitochondrial aconitase activity entry on mitochondrial aconitase is recorded as “does not substantially affect”.
